Test results reported in patent US10258635B2, “Formulations and compositions of vitamin D analogs for treating and preventing cancer and other diseases” (priority 2013, dated 2019).
“Also recorded” adds a separate entry of the source. Values belong to the compound of their own block, whether it stands above or below them.

Assays:
DU-145 cells = test: 3H-thymidine incorporation assay in DU-145 cells; format: cell-based, human; conditions: for anti-proliferative effect in DU-145 cells: 10^−6M, separate experiment
[1] = system: LNCaP prostate cancer cells; test: Cell-counting antiproliferative evaluation, LNCaP; format: cell-based; conditions: Calcitrol 10^−6M, AMPI-107 10^−5M; dosed days 1, 3, 5, counted 7th day
Protocol: (§1) Prostate cancer cells (DU-145, PC-3 and LNCaP) were grown in DMEM medium with 10% FBS, antibiotics, etc. […] Results are designated as percentage of ethanol control.

[2] = system: DU-145 Prostate Cancer Cells; test: Cell-counting antiproliferative evaluation, DU-145; format: cell-based, human; conditions: Calcitrol 10^−6M, AMPI-107 10^−5M; dosed days 1, 3, 5, counted 7th day
Protocol: as §1

[3] = system: RCC 54 kidney cancer cells; conditions: 7.5×10^−7 to 10^−6M
Protocol: In a typical assay cells were grown to 50-60% confluence in 24-well plates in respective media containing 5% FBS, and serum starved for 20 hours, followed by treatment with various agents (in 0.1% ethanolic solution) or ethanol (vehicle) in serum-containing medium for 16 hours. After the treatment media was removed from the wells and replaced with media containing ^3H-thymidine (Sigma, 0.1 μCi) per well, and the cells were incubated for 3 hours at 37° C. After this period media was removed by aspiration and the cells were washed thoroughly (3×0.5 ml) with PBS. Ice-cold 5% perchloric acid solution (0.5 ml) was added to each well and the cells were incubated on ice for 20 minutes. After this incubation, perchloric acid was removed by aspiration, replaced with 0.5 ml of fresh perchloric acid solution and the cells were incubated at 70° C. for 20 minutes. Solution from each well was mixed with scintillation fluid and counted in a liquid scintillation counter. There were eight (8) wells per sample; statistics was carried out by Student's t test.

[4] = system: DU-145 human prostate cancer cells; test: DU-145 xenograft efficacy, p.o. administration (Example 11); format: in vivo, nude mice; conditions: p.o.; calcitriol 0.5 μg/kg and 1.0 μg/kg; AMPI-109 0.5 μg/kg
24-OHase = test: Message for 24-OHase in LNCaP cells; format: cell-based
MCF-7 cells = test: Cell counting assay, MCF-7; format: cell-based; conditions: 48 hr; 10^−6 M 25-OH-D3-3-BE, 10^−7 M 1,25(OH)2D3; not serum-starved
Protocol: (§2) PZ-HPV-7 cells were grown in MCDB media containing pituitary extract, epidermal growth factor (EGF) and 1% penicillin/streptomycin. Keratinocytes were also grown in the same media with additional PG1 and insulin. PC-3, LNCaP, DU-145 cells were grown in RPMI media containing 10% fetal bovine serum (FBS) and antibiotics. MCF-7 cells were grown in DMEM media containing 10% FBS and antibiotics. LAPC-4 cells were maintained in IMEM media containing antibiotics, 1° % L-glutamine and 10 nM of R1881, a synthetic […]. MC3T3 mouse bone cells were grown in α-MEM media containing 10% FBS and antibiotics. In general, cells were grown in 35 mm dishes to 70-80% confluence and then plated into 24-well plates in respective media. After the cells grew to approximately 70% confluence, they were serum-starved for 20 hours (MCF-7, PC-3, LNCaP and DU-145 cells) followed by incubation with steroid samples. Keratinocytes and PZ-HPV-7 cells, after reaching 70% confluence, were kept in MCDB media without additives for 20 hours before treatment with steroids. In general, reagents were dissolved in ethanol (EtOH), and dilution with the media was adjusted in such a way that the concentration of EtOH was 0.1% v/v.
(§3) It should be noted that in this assay cells were not serum-starved prior to addition of the reagents, and 10^−7 M of 1,25(OH)2D3 had little effect on all the cells.

LAPC-4 cells = test: Cell counting assay, LAPC-4; format: cell-based; conditions: 24 hours; 10^−6 M 25-OH-D3-3-BE, 10^−7 M 1,25(OH)2D3; not serum-starved
Protocol: as §2, §3

normal kidney cells = test: 3H-thymidine incorporation assay in normal kidney cells; format: cell-based; conditions: 10^−6M
[5] = system: PC-3 Prostate Cancer Cells; test: Cell-counting antiproliferative evaluation, PC-3; format: cell-based; parameters: dose or concentration left out as unconfirmed; conditions: dosed days 1, 3, 5, counted 7th day
Protocol: as §1

LNCaP cells = test: Cell counting assay, LNCaP; format: cell-based; conditions: 24 hours; 10^−6 M 25-OH-D3-3-BE, 10^−7 M 1,25(OH)2D3; not serum-starved
Protocol: as §2, §3

[6] = system: Normal prostate WPMY cells; test: Viability testing by MTT reduction in normal prostate cells; format: cell-based; conditions: 24 hours; AMPI-107 1 and 10 μM, Calcitrol 1 μM
Protocol: MTT is reduced in metabolically active cells, in part by the action of dehydrogenase enzymes, to generate reducing equivalents such as NADH and NADPH. The resulting intracellular purple formazan can be solubilized and quantified by spectrophotometry. After 5 minutes at room temperature, absorbances in plates were measured using a plate analyzer set for in dual wavelength comparisons at wavelength of 540 nm with a reference wavelength of 620 nm.

[7] = system: DU 145 human androgen-insensitive prostate cancer cells; test: AMPI-107 in DU 145 xenograft, p.o. administration (Example 17); format: in vivo
Description: (§4) Male, athymic mice (average weight 20 gm) were fed normal rat chow and water ad libitum. They were inoculated with DU 145 human androgen-insensitive prostate cancer cells (10^6), grown in culture in the flank under light anesthesia. […] Treatment started on day 11 and stopped on day 30; and they were left untreated for two (2) additional days when they were sacrificed.

[8] = system: PC-3 (androgen-insensitive prostate cancer) cells; test: 3H-thymidine incorporation assay, PC-3; format: cell-based; conditions: 10^−6 M; for growth reduction of PC-3 cells: relative to EtOH
Protocol: (§5) Antiproliferation studies of keratinocytes (normal skin), MCF-7 (breast cancer), PZ-HPV-7 (immortalized normal prostate), LNcap (androgen-sensitive prostate cancer) and PC-3 (androgen-insensitive prostate cancer) cells, treated with 10^−6M of 25-OH-D3-3-BE (AMPI-105) or 1,25(OH)2D3 (bioactive Vitamin D3 hormone) were performed with a ^3H-thymidine incorporation assay
as §2
(§6) Assays were carried out with six (6) replicates and student's t-test was employed for statistical analysis. Results are expressed relative to EtOH (100%) in FIG. 24.

[9] = system: PZ-HPV-7 (immortalized normal prostate) cells; test: 3H-thymidine incorporation assay, PZ-HPV-7; format: cell-based
Protocol: as §5
as §2, with “Keratinocytes and PZ-HPV-7 cells, after reaching 70% confluence, were kept in MCDB media without additives for 20 hours before treatment with steroids. In general, reagents were dissolved in ethanol (EtOH), and dilution with the media was adjusted in such a way that the concentration of EtOH was 0.1% v/v.” left out

[10] = system: LNCaP (androgen-sensitive prostate cancer) cells; test: 3H-thymidine incorporation assay, LNCaP (Example 13); format: cell-based
Protocol: as §5, §2, §6

MC3T3 mouse bone cells = test: Cell counting assay, MC3T3; format: cell-based; conditions: 48 hr; 10^−6 M 25-OH-D3-3-BE, 10^−7 M 1,25(OH)2D3; not serum-starved
Protocol: as §2, §3

[11] = system: DU 145 human androgen-insensitive prostate cancer cells; test: AMPI-107 in DU 145 xenograft, i.p. administration (Example 17); format: in vivo
Description: as §4

[12] = system: MCF-7 (breast cancer) cells; test: 3H-thymidine incorporation assay, MCF-7; format: cell-based; conditions: 10^−6M
Protocol: as §5
as §2, with “Keratinocytes and PZ-HPV-7 cells, after reaching 70% confluence, were kept in MCDB media without additives for 20 hours before treatment with steroids. In general, reagents were dissolved in ethanol (EtOH), and dilution with the media was adjusted in such a way that the concentration of EtOH was 0.1% v/v.” left out

DU 145 cells = test: Efficacy study of 25-OH-D3-3-BE in DU 145 tumor-bearing athymic nude mice (oral gavage); format: in vivo; conditions: for average tumor volume at the end of treatment: oral gavage every third day, day 11 to 31; for anti-tumor effect: mouse prostate tumor xenograft model
Protocol: Male, athymic nude mice (average weight 20 gm) were fed normal rat chow and water ad libitum. They were inoculated with DU 145 cells, grown in culture, in the flank under light anesthesia. […] Administration of the compound was done by oral gavage on every third day (when weights were determined). Treatment started on day 11 and stopped on day 31; and they were left untreated for several additional days (as shown in FIG. 26) when they were sacrificed and blood was collected.

[13] = system: keratinocytes (normal skin); test: 3H-thymidine incorporation assay, keratinocytes; format: cell-based; conditions: 10^−6M
Protocol: as §5
as §2, with “Keratinocytes and PZ-HPV-7 cells, after reaching 70% confluence, were kept in MCDB media without additives for 20 hours before treatment with steroids. In general, reagents were dissolved in ethanol (EtOH), and dilution with the media was adjusted in such a way that the concentration of EtOH was 0.1% v/v.” left out

Compound: C=C1/C(=C\C=C2/CCC[C@]3(C)[C@@H]([C@H](C)/C=C/C=C/C(O)(CC)CC)CC[C@@H]23)C[C@@H](O)C[C@@H]1O [EB-1089, reference compound]
- anti-proliferative effect in DU-145 cells (DU-145 cells): failed to produce any discernible anti-proliferative effect

Compound: C=C1/C(=C\C=C2/CCC[C@]3(C)[C@@H]([C@H](C)CCCC(C)(C)O)CC[C@@H]23)C[C@@H](O)C[C@@H]1O [calcitriol, 1,25-dihydroxyvitamin D3, reference compound]
- growth inhibition of LNCaP cells [1]: strongly inhibited the growth
- growth inhibitory activity in DU-145 cells [2]: approximately similar growth inhibitory activity
- reduction of proliferation of RCC 54 kidney cancer cells [3]: did not have any statistically different impact
- body weight [4]: significant loss in body weight
- message for 24-OHase (24-OHase): up regulated
- number of MCF-7 cells (MCF-7 cells): little effect
- number of LAPC-4 cells (LAPC-4 cells): little effect
- impact on normal kidney cells versus control (normal kidney cells): neither Calcitriol nor AMPI-109 had any statistically different impact
- growth inhibition of PC-3 cells [5]: strongly inhibited the growth
- antiproliferative effect in DU-145 cells (DU-145 cells; 2.5×10^−7M to 10^−6M, 20 hours): no effect
- anti-proliferative effect in DU-145 cells (DU-145 cells): failed to produce any discernible anti-proliferative effect
- number of LNCaP cells (LNCaP cells): little effect
- cell metabolism (MTT reduction) [6]: slightly, but significantly reduce cell metabolism
- toxicity (body weight) ([7]; mouse, in vivo, po, 1 mg/kg): clearly toxic as evidenced by considerable loss of body weight
- growth reduction of PC-3 cells [8]: 70%
- inhibition at 1 µM ([9]; Prostate cell, read-out: growth inhibition of PZ-HPV-7 cells): ~65%
- inhibition at 1 µM ([10]; Homo sapiens, LNCaP, read-out: growth inhibition of LNCaP cells): ~60%
- number of MC3T3 cells (MC3T3 mouse bone cells): little effect
- toxicity (body weight) ([11]; mouse, in vivo, ip, 1 mg/kg): clearly toxic as evidenced by considerable loss of body weight

- gross weight of the animals versus untreated (DU 145 cells; during and after the treatment): no significant difference
Compound: C=C1CCC(OC(=O)CBr)CC1=CC=C1CCCC2(C)C1CCC2C(C)CCCC(C)(C)O (stereo not drawn) [AMPI-105, 25-hydroxyvitamin D3-3-bromoacetate]
- number of MCF-7 cells (MCF-7 cells): affected to a much lesser extent
- number of LAPC-4 cells (LAPC-4 cells): sharply reduced number of cells
- growth inhibition in MCF-7 cells relative to 1,25(OH)2D3 [12]: weaker than 1,25(OH)2D3
- average tumor volume at the end of treatment (DU 145 cells; 0.25 μg/kg): 650 mm^3
- average tumor volume at the end of treatment (DU 145 cells; 0.5 μg/kg): 500 mm^3
- anti-tumor effect (DU 145 cells): strong anti-tumor activity
- anti-tumor effect (DU 145 cells; listed as 25-OH-D3-3-BE): dose-dependent anti-tumor effect
- number of LNCaP cells (LNCaP cells): sharply reduced number of cells
- growth inhibition in keratinocytes relative to 1,25(OH)2D3 [13]: stronger than an equivalent amount of 1,25 (OH)2D3
- cytotoxicity to PC-3 cells ([8]; phase contrast microscope): cytotoxic
- growth reduction of PC-3 cells [8]: 90%
- growth inhibition of PZ-HPV-7 cells ([9]; 10^−6 M, relative to EtOH): approximately 50%
- cytotoxicity to LNCaP cells ([10]; 10^−6 M, phase contrast microscope): cytotoxic
- growth inhibition of LNCaP cells ([10]; 10^−6 M, relative to EtOH): ~98%
- number of MC3T3 cells (MC3T3 mouse bone cells): affected to a much lesser extent

Compound: Vitamin D3-3-epoxide [AMPI-107]
- growth inhibition of LNCaP cells [1]: strongly inhibited the growth and significantly stronger effect and more
- growth inhibitory activity in DU-145 cells [2]: approximately similar growth inhibitory activity; also recorded: equally effective
- efficacy on tumor size ([7]; 1 mg/kg p.o. every third day, day 11 to 30): strongly reduced tumor size
- toxicity (body weight) ([7]; p.o., hormone 0.5 and 1.0 μg/kg, MPI 107 1 mg/kg): completely non-toxic
- efficacy on tumor size ([11]; 1 mg/kg i.p. every third day, day 11 to 30): strongly reduced tumor size
- toxicity (body weight) ([11]; i.p., hormone 0.5 and 1.0 μg/kg, MPI 107 1 mg/kg): completely non-toxic

Compound: 25-hydroxyvitamin D3-3-epoxide [AMPI-106]
- anti-tumor effect (DU 145 cells): strong anti-tumor activity

Compound: C=C1/C(=C\C=C2/CCC[C@]3(C)[C@@H]([C@H](C)/C=C/[C@@H](O)C4(C(=O)OCCCC)CC4)CC[C@@H]23)C[C@@H](O)C[C@@H]1O [ZK 159222]
- message for 24-OHase (24-OHase): obliterated

Compound: C=C1CC[C@H](O)C/C1=C/C=C1\CCC[C@]2(C)[C@@H]([C@H](C)CCCC(C)(C)O)CC[C@@H]12 [25-OH-D3, 25-hydroxyvitamin D3, reference compound]
- growth reduction of PC-3 cells [8]: marginal antiproliferative effect
